The source of these data is BindingDB's records for doi:10.1016/s0960-894x(98)00660-x (Smithkline Beecham Research Unit, 1999).

Broadly, the IC50 is the concentration that gives 50% inhibition. Low readings indicate greater potency in that assay, high ones weaker potency in that assay.

The assay has as its target V-type proton ATPase (Gallus gallus). The assay is described as follows: Compound was measured for the inhibition of bafilomycin-sensitive ATPase activity in partially purified membrane preparation from chicken osteoclast (cOC).

As to `CO/C(=C\C=C\c1cc2cc(Cl)c(Cl)cc2[nH]1)C(=O)NC1CC(C)(C)N(C)C(C)(C)C1` [(2Z,4E)-5-(5,6-Dichloro-1H-indol-2-yl)-2-methoxy-penta-2,4-dienoic acid (1,2,2,6,6-pentamethyl-piperidin-4-yl)-amide], it took 27 nM to reach half-maximal inhibition (IC50).

Consider `CO/C(=C/C=C/c1cc2cc(Cl)c(Cl)cc2[nH]1)C(=O)NC1CC(C)(C)N(C)C(C)(C)C1` [TCMDC-139097], for which the IC50 was 2360 nM.

Take `CO/C(=C\C=C/c1cc2cc(Cl)c(Cl)cc2[nH]1)C(=O)NC1CC(C)(C)N(C)C(C)(C)C1` [TCMDC-139106]: 663 nM corresponded to half-maximal inhibition (IC50).
